Measurements from article PMC2790015 (Journal of molecular biology, 2009).

Key:
[1] = tested on: DNA alone; experiment: DNA hybridization controls for the AraC experiments; assay type: binding; conditions: compared with no sugar; sugars 10 mM; data not shown
[2] = tested on: adjacent DNA half-sites; conditions: addition of arabinose; cited from earlier work
[3] = tested on: K4 and E4 heterodimerizing coiled-coil peptides; experiment: DNA-assisted binding assay; conditions: GC to AT substituted DNA versus original DNA sequence
[4] = biological target: T1, K4 coiled-coil peptide (modified: N-terminal Met, Val to Trp, C-terminal Ala), unconjugated; experiment: ITC
T1 peptide: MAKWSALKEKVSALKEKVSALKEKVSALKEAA

O[C@@H]1[C@@H](O)[C@@H](O)CO[C@H]1O [arabinose]
effect of sugar on DNA hybridization [1]: DNA hybridization is not affected | increase in amount of AraC capable of binding to adjacent DNA half-sites [2]: 40 -fold

OC[C@H]1OC(O)[C@H](O)[C@@H](O)[C@@H]1O (some centres unmarked) [glucose]
effect of sugar on DNA hybridization [1]: DNA hybridization is not affected

GC to AT substituted DNA sequences: K4 and E4 conjugated to GC to AT substituted 5’-TTTTTTGGGTTATAC-3’ and 5’-TTTTTTGTATAAC-3’ (K4 and E4 peptides conjugated)
decrease in the interaction between the conjugates [3]: 3 -fold

MAEWSALEKEVSALEKEVSALEKEVSALEKAA [E4 coiled-coil peptide (modified: N-terminal Met, Val to Trp, C-terminal Ala), unconjugated]
Kd [4]: ~1000 nM
